One block for each compound: values may come before it. Where a SMILES comes first, the peptide text is derived from it. Where no end group is shown, it is not given here. The star is where a group is joined. BODIPYFLEthylmaleimide = Cc1cc(C)n2c1C=C1C=CC(CCC(=O)NCCN3C(=O)CC(*)C3=O)=[N+]1[B-]2(F)F; Bodipy = not defined here
Tests used:
[1] = biological target: T1, NEMO oligomers (Flag-NEMO/GFP-NEMO) (Mus musculus, UniProt O88522, A144V/E216G/P360T/S248N); experiment: Inhibition of NEMO oligomerization in cells (GFP-NEMO/Flag-NEMO co-transfected 293T cells); format: cell-based, murine; conditions: 20 μM peptide
T1 construct: expressed in transfected cells; host or cells: 293T (human embryonal kidney), transient co-transfection
Description: 293T cells were transiently co-transfected by calcium-phosphate-DNA precipitation method with 2 μg of a plasmid pcDNA3 (Invitrogen) containing the sequence of FLAG-NEMO (pcDNA3-Flag-NEMO of sequence SEQ ID NO: 24) and 0.7 μg of a plasmid pcDNA3 containing the sequence of GFP-NEMO (pcDNA3-GFP-NEMO of sequence SEQ ID NO: 26). Empty vector is added up to a total amount of DNA of 4 μg per 6 cm dish. 24 h after transfection, cells were resuspended and incubated with or without 20 μM of peptides (A-NLM or A-DR NLM) for 7 h at 37° C. Cells were resuspended and washed twice with PBS to remove excess peptides and lysed in 150 μl of lysis buffer containing a protease inhibitor mixture as indicated above (Example 1.D). Lysates were clarified at 15 000×g at 4° C. for 20 min. The amount of proteins in the clarified lysate is determined by the Bradford method with the kit DC Biorad. 100 μg of total proteins were diluted in 200 μl of interaction buffer (50 mM TrisHCl pH 7.5, 1% triton X100, 1 mM DTE, 300 mM NaCl) and incubated 1 h at 4° C. with 40 μl of agarose anti-Flag M2 beads (Sigma). The oligomers Flag-NEMO/GFP-NEMO were pulled down with the anti-Flag M2 beads and washed twice with the interaction buffer. The fluorescence of GFP-NEMO were directly read on the beads with a fluorescence microplate reader SAFAS and the clarified lysates were analysed by Western blotting using anti-Flag, anti-GFP and anti-NDPK-B antibodies (Kraeft et al., 1996; Exp Cell Res; 227:63-69) to normalize the results.
In order to better analyze the molecular mechanism of the inhibition of the NF-κB pathway by DR NLM peptide, the Inventors have developed an assay to probe NEMO oligomerization in cells as described in Example 1.I (see FIG. 5 for an overview of the cell-based assay). For this, two plasmids were used, expressing respectively GFP-NEMO and Flag-NEMO fusion proteins. The plasmids were cotransfected in human 293T cells to overexpress exogenous GFP-NEMO and Flag-NEMO fusion proteins and enforce NEMO oligomerization. The cells were then submitted to detergent lysis and Flag-NEMO proteins were immunopurified using anti-Flag agarose beads and Flag peptide as described in Example 1.I. The fluorescence associated with beads that results from an association of Flag-NEMO with GFP-NEMO subunits within hetero-oligomers allow an estimate of the amount of oligomers present in the cellular extracts.

spCC2-LZ (MOD of NEMO) = biological target: T2, spCC2-LZ (MOD of NEMO) (Mus musculus, UniProt O88522); experiment: Fluorescence anisotropy binding of labelled peptide to spCC2-LZ; conditions: labelled peptide 10 μM, increasing spCC2-LZ; read-out: dissociation constant for spCC2-LZ
T2 construct: spCC2-LZ, synthetic polypeptide subdomain CC2-LZ; made in house; host or cells: chemical synthesis
Description: Anisotropy measurements were performed with a QuantaMaster® fluorometer (PTI), equipped with polarizing filters for excitation and emission, and using a photomultiplier tube in the L-configuration. All experiments were carried out in a microcuvette (60 μl) at 22° C., with excitation and emission wavelengths at 495 and 513 nm. The band pass of the excitation and emission wavelengths was 2 and 4 nm, respectively. Steady-state fluorescence anisotropy, expressed as millianisotropy units was measured as described Agou et al., 2004a. All measurements were carried out in a 20 mM isoionic buffer pH 8 (10 mM acetic acide, 10 mM MES, 20 mM Tris), containing 20 mM KCl. Each data point is the result of 20 recording taken over a 2-min period. To analyse whether DR NLM binds the MOD of NEMO, fluorescent labelled BA-DR NLM (10 μM) was incubated with an increasing concentrations of spCC2-LZ and the complex formation was monitored by fluorescence polarization (P) and results are expressed as anisotropy (A) according to the formula A=2P/(3-P). The concentration of spCC2-LZ was determining by amino acid analysis (Vinolo et al; 2006). Data points were fitted to the binding isotherm equation which gives a dissociation constant of 17 μM.

[2] = Circular dichroism and gel filtration, self-association of peptides; format: physicochemical; conditions: peptide concentration up to 100 μM; data not shown
Description: Far-UV circular dichroism (CD) measurements were performed with an Aviv 215 spectropolarimeter with samples diluted in 10 mM NaPO4 at pH 7.
Then, unlike the LZ peptide, DR NLM peptide as well as NLM peptide are unable to self-associate. Self association of LZ peptide is described by Agou et al., 2004b.

[3] = biological target: T3, Lys63-linked polyubiquitin chains (Homo sapiens, UniProt P0CG47); experiment: In vitro binding assay by fluorescence polarization to polyubiquitin chains; conditions: tag-free peptide
T3 construct: the Lys63-linked polyubiquitin chains; purchased Boston Biochem

NF-κB pathway = conditions: cited from earlier work; for IC50 of inhibition of NF-κB activation: reported in WO2005/027959, Agou et al., 2004b
[4] = biological target: T4, CC2-LZ interaction with cellular polyubiquitinylated proteins (Mus musculus, UniProt O88522); experiment: Pull-down of polyubiquitinylated proteins from JM4.5.2 extracts with biotinylated CC2-LZ, anti-ubiquitin Western blot; format: biochemical; conditions: 20 μM peptide, extracts of TNF-α stimulated JM4.5.2 cells
T4 construct: made in house; host or cells: chemical synthesis (bait); crude extract of JM4.5.2 cells with or without TNFα (partners)
Description: 24·10^7 JM4.5.2 cells were stimulated or not with 10 ng/ml of TNFα for 10 minutes at 37° C., washed twice with cold PBS and lysed in 900 μl of lysis buffer containing a protease inhibitor mixture as indicated in Example 1.D. Lysates were clarified at 15 000×g at 4° C. for 30 min. 150 μl of proteins were incubated 2 h at 4° C. with 150 μl of streptavidin magnetic beads (MagPrep®, Novagen) pre-incubated 1 h at 4° C. with 10 μg of biotynilated-CC2-LZ and with or without 20 μM of peptides (BA-NLM or BA-DR NLM). Beads were washed 4 times in buffer A (10 mM Hepes pH 7.5, 150 mM NaCl, 8 mM MgCl2, 10% glycerol, 0.1 mM DDM and 1 mM DTE) and resuspended in 30 μl of laemmli buffer containing 6 M Urea. Samples were analysed by Western blotting using anti-ubiquitin antibodies (Sigma) as well as anti-NDPK-B antibodies for loading controls.
Thus, the Inventors examined whether DR NLM impedes the interaction between NEMO and the K63 polyubiquitin chains. To this end, they developed a pull down assay which uses the a peptide comprising the CC2 and the LZ domains of NEMO as a bait to pull down the polyubiquitinylated proteins as described in Example 1.J and depicted in FIG. 7A. […] After extensive washing of beads, all mono and polyubiquitinylated proteins bound to CC2-LZ were analysed by Western blot using anti-ubiquitin antibody (Sigma).

T1 sequence (O88522 with tags, fused parts or gaps A144V/E216G/S248N/P360T limits assumed): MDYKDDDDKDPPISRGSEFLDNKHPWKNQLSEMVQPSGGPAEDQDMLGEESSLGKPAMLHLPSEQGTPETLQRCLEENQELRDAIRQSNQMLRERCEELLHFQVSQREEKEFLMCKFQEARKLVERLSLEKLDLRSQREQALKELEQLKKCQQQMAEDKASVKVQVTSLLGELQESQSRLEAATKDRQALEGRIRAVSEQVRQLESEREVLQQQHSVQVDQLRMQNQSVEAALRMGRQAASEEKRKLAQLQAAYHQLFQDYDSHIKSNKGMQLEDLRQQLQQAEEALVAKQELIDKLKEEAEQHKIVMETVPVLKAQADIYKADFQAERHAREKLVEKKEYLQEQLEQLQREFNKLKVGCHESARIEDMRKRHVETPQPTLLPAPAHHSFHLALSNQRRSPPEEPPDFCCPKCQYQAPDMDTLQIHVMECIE
T2 sequence (O88522 253-336): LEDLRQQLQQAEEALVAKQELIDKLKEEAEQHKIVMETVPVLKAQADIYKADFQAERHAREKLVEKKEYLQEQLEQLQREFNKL
T4 sequence (O88522 253-336): as above

- Kd (spCC2-LZ (MOD of NEMO)): 17 µM
Compound: CC[C@H](C)[C@H](NC(=O)[C@H](CC(=O)O)NC(=O)[C@H](C)NC(=O)[C@H](CCC(N)=O)NC(=O)[C@H](C)NC(=O)[C@H](CCCCN)NC(=O)[C@H](CC(C)C)NC(=O)[C@H](CCCCN)NC(=O)[C@H](CCCCN)NC(=O)[C@H](Cc1c[nH]c2ccccc12)NC(=O)[C@H](CCCCN)NC(=O)[C@H](CCSC)NC(=O)[C@H](CCCNC(=N)N)NC(=O)[C@H](CCCNC(=N)N)NC(=O)[C@H](CC(N)=O)NC(=O)[C@H](CCC(N)=O)NC(=O)[C@H](Cc1ccccc1)NC(=O)[C@H](Cc1c[nH]c2ccccc12)NC(=O)[C@@H](NC(=O)[C@H](CCCCN)NC(=O)[C@@H](NC(=O)[C@H](CCC(N)=O)NC(=O)[C@H](CCCNC(=N)N)NC(=O)[C@H](CSC1CC(=O)N(CCNC(=O)CCC2=[N+]3C(=Cc4c(C)cc(C)n4[B-]3(F)F)C=C2)C1=O)NC(C)=O)[C@@H](C)CC)[C@@H](C)CC)C(=O)N[C@@H](Cc1ccc(O)cc1)C(=O)N[C@@H](CCCCN)C(=O)N[C@@H](C)C(=O)N[C@@H](CCCNC(=N)N)C(=O)N[C@@H](Cc1ccccc1)C(=O)N[C@@H](CCC(N)=O)C(=O)N[C@@H](C)C(=O)N[C@@H](CCC(=O)O)C(=O)N[C@@H](CCCNC(=N)N)C(=O)N[C@@H](Cc1c[nH]cn1)C(=O)N[C@@H](C)C(=O)N[C@@H](CCCNC(=N)N)C(=O)N[C@@H](CCC(=O)O)C(=O)N[C@@H](CCCCN)C(N)=O (stereo partly shown) [BA-DR NLM] (Ac-C(BODIPYFLEthylmaleimide)RQIKIWFQNRRMKWKKLKAQADIYKARFQAERHAREK-NH2; N-terminus and C-terminus assumed)
- amount of NEMO oligomers (fluorescent NEMO subunit recovered) [1]: same amount of NEMO oligomers in the absence or in the presence

- Kd (spCC2-LZ (MOD of NEMO)): 21 µM
Compound: CC[C@H](C)[C@H](NC(=O)[C@H](CC(=O)O)NC(=O)[C@H](C)NC(=O)[C@H](CCC(N)=O)NC(=O)[C@H](C)NC(=O)[C@H](CCCCN)NC(=O)[C@H](CC(C)C)NC(=O)[C@H](CCCNC(=N)N)NC(=O)[C@H](CCCNC(=N)N)NC(=O)[C@H](CCCNC(=N)N)NC(=O)[C@H](CCCNC(=N)N)NC(=O)[C@H](CCCNC(=N)N)NC(=O)[C@H](CCCNC(=N)N)NC(=O)[C@H](CCCNC(=N)N)NC(=O)[C@H](CSC1CC(=O)N(CCNC(=O)CCC2=[N+]3C(=Cc4c(C)cc(C)n4[B-]3(F)F)C=C2)C1=O)NC(C)=O)C(=O)N[C@@H](Cc1ccc(O)cc1)C(=O)N[C@@H](CCCCN)C(=O)N[C@@H](C)C(=O)N[C@@H](CCCNC(=N)N)C(=O)N[C@@H](Cc1ccccc1)C(=O)N[C@@H](CCC(N)=O)C(=O)N[C@@H](C)C(=O)N[C@@H](CCC(=O)O)C(=O)N[C@@H](CCCNC(=N)N)C(=O)N[C@@H](Cc1c[nH]cn1)C(=O)N[C@@H](C)C(=O)N[C@@H](CCCNC(=N)N)C(=O)N[C@@H](CCC(=O)O)C(=O)N[C@@H](CCCCN)C(N)=O (stereo partly shown) [BR7-DR NLM] (Ac-C(BODIPYFLEthylmaleimide)RRRRRRRLKAQADIYKARFQAERHAREK-NH2; N-terminus and C-terminus assumed)

- oligomeric state / self-association [2]: behave as monomer
- cooperativity index (Hill coefficient) n [3]: 8
- Kd ([3]; read-out: dissociation constant for Lys63-linked polyubiquitin chains): 180 µM
- inhibition of CC2-LZ interaction with polyubiquitinylated proteins [4]: no inhibition was observed
Compound: CC[C@H](C)[C@H](NC(=O)[C@H](CC(=O)O)NC(=O)[C@H](C)NC(=O)[C@H](CCC(N)=O)NC(=O)[C@H](C)NC(=O)[C@H](CCCCN)NC(=O)[C@H](CC(C)C)NC(C)=O)C(=O)N[C@@H](Cc1ccc(O)cc1)C(=O)N[C@@H](CCCCN)C(=O)N[C@@H](C)C(=O)N[C@@H](CC(=O)O)C(=O)N[C@@H](Cc1ccccc1)C(=O)N[C@@H](CCC(N)=O)C(=O)N[C@@H](C)C(=O)N[C@@H](CCC(=O)O)C(=O)N[C@@H](CCCNC(=N)N)C(=O)N[C@@H](Cc1c[nH]cn1)C(=O)N[C@@H](C)C(=O)N[C@@H](CCCNC(=N)N)C(=O)N[C@@H](CCC(=O)O)C(=O)N[C@@H](CCCCN)C(N)=O [NLM] (Ac-LKAQADIYKADFQAERHAREK-NH2; N-terminus and C-terminus assumed)
- inhibition of NF-κB activation (NF-κB pathway; reported in WO 2005/027959): inhibit NF-κB activation

Compound: BA-LZ L322P/L329P: BA-LZ bearing a double mutation within the coiled-coil interface, SEQ ID NO: 22 (C(Bodipy)RQIKIWFQNRRMKWKKLKAQADIYKADFQAERHAREKLVEKKEYPQEQLEQPQREFNKL; reading uncertain)
- amount of NEMO oligomers (fluorescent NEMO subunit recovered) [1]: no dissociation of NEMO oligomers was observed

Compound: BA-LZ: Bodipy-antennapedia tagged LZ peptide, SEQ ID NO: 4 (human 5) (C(Bodipy)RQIKIWFQNRRMKWKKLKAQADIYKADFQAERHAREKLVEKKEYLQEQLEQLQREFNKL; reading uncertain)
- amount of NEMO oligomers (fluorescent NEMO subunit recovered) [1]: strong decrease in the amount of fluorescent NEMO subunit

Compound: BA-NLM: NLM fused at N-terminus with antennapedia and conjugated with bodipy (C(Bodipy)RQIKIWFQNRRMKWKKLKAQADIYKADFQAERHAREK; reading uncertain)
- amount of NEMO oligomers (fluorescent NEMO subunit recovered) [1]: same amount of NEMO oligomers in the absence or in the presence

Compound: LKAQADIYKADFQAERHAREKLVEKKEYLQEQLEQLQREFNKL [spLZ]
- IC50 of inhibition of NF-κB activation (NF-κB pathway): in the μM range

Compound: SKGMQLEDLRQQLQQAEEALVAKQELIDKLKEEAEQHKIV [spCC2]
- IC50 of inhibition of NF-κB activation (NF-κB pathway): in the μM range

From patent US20100240040A1, “METHOD FOR SCREENING FOR SELECTIVE MODULATOR OF THE NF-KB PATHWAY ACTIVATION” (INSTITUT PASTEUR, priority 2007, published 2010)
